Measurements from US20160137639A1, “TRIAZOLE-ISOXAZOLE COMPOUND AND MEDICAL USE THEREOF” (JAPAN TOBACCO INC., priority 2012, published 2016).

target: T1, mouse RORγ (Mus musculus, UniProt P51450); assay: Luciferase reporter gene assay of inhibitory effect against RORγ transcriptional activity (GAL4-mRORγ plasmid in CHO cells); type: cell-based; details: read-out: LUC EC50 (μM) mRORg
T1 construct: mouse, NM_011281.2 and from Ile251 to Lys516; expressed in transfected cells; host or cells: CHO cells (transient co-transfection with pG5-Luc reporter)
T1 sequence (P51450 251-516): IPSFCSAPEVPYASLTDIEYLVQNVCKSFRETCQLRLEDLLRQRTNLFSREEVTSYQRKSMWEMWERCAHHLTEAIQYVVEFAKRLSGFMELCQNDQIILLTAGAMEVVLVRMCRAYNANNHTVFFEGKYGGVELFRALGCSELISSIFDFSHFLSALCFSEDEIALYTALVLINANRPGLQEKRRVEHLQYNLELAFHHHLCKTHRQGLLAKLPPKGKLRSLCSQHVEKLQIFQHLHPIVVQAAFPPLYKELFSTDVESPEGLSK
Method in brief: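 CHO cells transiently co-transfected with GAL4-mouse RORγ LBD (Ile251–Lys516) and GAL4-dependent luciferase reporter; eight compound concentrations, 0.1% DMSO, 2 days at 37 °C. Luminescence as %-of-vehicle control; EC50 by curve fit, cytotoxic concentrations excluded.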

Row | Structure (SMILES) | EC50 [µM]
1 | Cc1ccc(Cl)cc1NC(=O)CCc1nnc(CCC(C)C)n1C1CC1 [Example F-131] | > 3
2 | CC(C)CCc1nnc(CCC(=O)NCc2ccccc2)n1C1CC1 [Example F-57] | > 3
3 | Cc1ccc(NC(=O)C[C@H](CCOCc2ccccc2)c2nnc([C@H]3C[C@@H](CC(C)C)C3)n2C2CC2)c(C)c1 [Example F-456] | < 3
4 | Cc1ccc(Br)cc1NC(=O)CCc1nnc(CCC(C)C)n1C1CC1 [Example F-140] | > 3
5 | CCC(C)(C)CCc1nnc([C@H]2CN(C(C)=O)C[C@@H]2C(=O)Nc2ccc(C)cc2C)n1C1CC1 (racemic) [Example F-299] | < 3
6 | Cc1ccc(NC(=O)C[C@H](CCCC(=O)O)c2noc(-c3cc(CCC(C)C)on3)c2C2CC2)c(Cl)c1 [Example E-21] | < 3
7 | CC(C)(C)Cc1cc(-c2onc([C@@H](CCC(=O)O)CC(=O)Nc3ccc(F)cc3Cl)c2C2CC2)no1 [Example E-57] | < 3
8 | Cc1ccc(NC(=O)CCc2nnc(CCC3CCCCC3)n2C2CC2)c(C)c1 [Example F-95] | < 3
9 | Cc1c(Cl)cccc1NC(=O)CC(CCO)c1nnc(CCCC(C)C)n1C1CC1 (racemic) [Example F-199] | < 3
10 | Cc1ccc(NC(=O)C[C@@H](CCO)c2nnc(CCCC(C)(C)C)n2CC(F)(F)F)c(C)c1 [Example F-379] | < 3
11 | Cc1c(Cl)cccc1NC(=O)CCc1nnc(COC2CCCCC2)n1C1CC1 [Example F-144] | < 3
12 | Cc1ccc(NC(=O)C[C@@H](CCO)c2nnc(CCCC(C)(C)C)n2C2CC2)c(C)c1 [Example F-326] | > 3
13 | CC(=O)N1C[C@H](C(=O)Nc2ccc(C)cc2C)[C@@H](c2nnc([C@H]3C[C@@H](OC(C)(C)C)C3)n2C2CC2)C1 (racemic) [Example F-382] | < 3
14 | CCn1c(CCC(=O)NCc2ccccc2)nnc1C1Cc2ccccc2C1 [Example F-22] | > 3
15 | Cc1ccc(NC(=O)C[C@H](CCC(=O)O)c2noc(-c3noc(CCC(C)C)c3Cl)c2C2CC2)c(Cl)c1 [Example E-10] | < 3
16 | CC(C)CCc1nnc(CCC(=O)Nc2cnc3ccccn23)n1C1CC1 [Example F-134] | > 3
17 | Cc1cc(Cl)ccc1NC(=O)C[C@H](CCC(=O)O)c1noc(-c2cc(CCC(C)(C)C)on2)c1C1CC1 [Example E-38] | < 3
18 | Cc1c(Cl)cccc1NC(=O)CC(O)c1nnc(CCC(C)C)n1C1CC1 (racemic) [Example F-164] | < 3
19 | Cc1c(Cl)cccc1NC(=O)CCc1nnc(CCN2CCCCC2=O)n1C1CC1 [Example F-187] | > 3
20 | Cc1c(Cl)cccc1NC(=O)CCc1nnc(CC(C)C)n1C1CC1 [Example F-107] | > 3
21 | Cc1ccc(NC(=O)[C@H]2CCCN[C@@H]2c2nnc(CCCC(C)(C)C)n2C2CC2)c(C)c1 [Example F-309] | < 3
22 | Cc1ccc(NC(=O)C[C@H](CCC(=O)O)c2noc(-c3cc(CC(C)C)on3)c2C2CC2)c(F)c1 [Example E-03] | < 3
23 | CC(=O)N1C[C@H](C(=O)Nc2ccc(C)cc2C)[C@@H](c2nnc(CCCC(C)(C)C)n2C2CC2)C1 (racemic) [Example F-219] | < 3
24 | CCn1c(C2Cc3ccccc3C2)nnc1[C@@H]1C[C@@H]1C(=O)Nc1cccc2ccccc12 (racemic) [Example F-27] | < 3
25 | Cc1cc(CO)ccc1NC(=O)CCc1nnc(CCC(C)C)n1C1CC1 [Example F-88] | > 3

target: T2, human RORγ (Homo sapiens, UniProt P51449); assay: Luciferase reporter gene assay of inhibitory effect against RORγ transcriptional activity (GAL4-hRORγ plasmid in CHO cells); type: cell-based; details: read-out: LUC EC50 (μM) hRORg
T2 construct: human, NM_005060.3 and from Ser253 to Lys518; expressed in transfected cells; host or cells: CHO cells (transient co-transfection with pG5-Luc reporter)
T2 sequence (P51449 253-518): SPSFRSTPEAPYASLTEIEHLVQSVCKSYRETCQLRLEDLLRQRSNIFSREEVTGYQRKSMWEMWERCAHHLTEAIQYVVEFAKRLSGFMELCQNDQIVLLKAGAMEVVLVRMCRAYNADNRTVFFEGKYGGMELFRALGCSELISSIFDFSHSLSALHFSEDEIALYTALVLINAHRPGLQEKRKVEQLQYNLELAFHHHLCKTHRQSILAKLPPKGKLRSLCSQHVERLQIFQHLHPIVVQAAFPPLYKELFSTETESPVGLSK

Row | Structure (SMILES) | EC50 [µM]
26 | Cc1ccc(Cl)cc1NC(=O)CCc1nnc(CCC(C)C)n1C1CC1 [Example F-131] | > 3
27 | CC(C)CCc1nnc(CCC(=O)NCc2ccccc2)n1C1CC1 [Example F-57] | > 3
28 | Cc1ccc(NC(=O)C[C@H](CCOCc2ccccc2)c2nnc([C@H]3C[C@@H](CC(C)C)C3)n2C2CC2)c(C)c1 [Example F-456] | < 3
29 | Cc1ccc(Br)cc1NC(=O)CCc1nnc(CCC(C)C)n1C1CC1 [Example F-140] | > 3
30 | CCC(C)(C)CCc1nnc([C@H]2CN(C(C)=O)C[C@@H]2C(=O)Nc2ccc(C)cc2C)n1C1CC1 (racemic) [Example F-299] | < 3
31 | Cc1ccc(NC(=O)C[C@H](CCCC(=O)O)c2noc(-c3cc(CCC(C)C)on3)c2C2CC2)c(Cl)c1 [Example E-21] | < 3
32 | CC(C)(C)Cc1cc(-c2onc([C@@H](CCC(=O)O)CC(=O)Nc3ccc(F)cc3Cl)c2C2CC2)no1 [Example E-57] | < 3
33 | Cc1ccc(NC(=O)CCc2nnc(CCC3CCCCC3)n2C2CC2)c(C)c1 [Example F-95] | < 3
34 | Cc1c(Cl)cccc1NC(=O)CC(CCO)c1nnc(CCCC(C)C)n1C1CC1 (racemic) [Example F-199] | < 3
35 | Cc1ccc(NC(=O)C[C@@H](CCO)c2nnc(CCCC(C)(C)C)n2CC(F)(F)F)c(C)c1 [Example F-379] | > 3
36 | Cc1c(Cl)cccc1NC(=O)CCc1nnc(COC2CCCCC2)n1C1CC1 [Example F-144] | < 3
37 | Cc1ccc(NC(=O)C[C@@H](CCO)c2nnc(CCCC(C)(C)C)n2C2CC2)c(C)c1 [Example F-326] | > 3
38 | CC(=O)N1C[C@H](C(=O)Nc2ccc(C)cc2C)[C@@H](c2nnc([C@H]3C[C@@H](OC(C)(C)C)C3)n2C2CC2)C1 (racemic) [Example F-382] | < 3
39 | CCn1c(CCC(=O)NCc2ccccc2)nnc1C1Cc2ccccc2C1 [Example F-22] | > 3
40 | Cc1ccc(NC(=O)C[C@H](CCC(=O)O)c2noc(-c3noc(CCC(C)C)c3Cl)c2C2CC2)c(Cl)c1 [Example E-10] | < 3
41 | CC(C)CCc1nnc(CCC(=O)Nc2cnc3ccccn23)n1C1CC1 [Example F-134] | > 3
42 | Cc1cc(Cl)ccc1NC(=O)C[C@H](CCC(=O)O)c1noc(-c2cc(CCC(C)(C)C)on2)c1C1CC1 [Example E-38] | < 3
43 | Cc1c(Cl)cccc1NC(=O)CC(O)c1nnc(CCC(C)C)n1C1CC1 (racemic) [Example F-164] | > 3
44 | Cc1c(Cl)cccc1NC(=O)CCc1nnc(CCN2CCCCC2=O)n1C1CC1 [Example F-187] | > 3
45 | Cc1c(Cl)cccc1NC(=O)CCc1nnc(CC(C)C)n1C1CC1 [Example F-107] | > 3
46 | Cc1ccc(NC(=O)[C@H]2CCCN[C@@H]2c2nnc(CCCC(C)(C)C)n2C2CC2)c(C)c1 [Example F-309] | < 3
47 | Cc1ccc(NC(=O)C[C@H](CCC(=O)O)c2noc(-c3cc(CC(C)C)on3)c2C2CC2)c(F)c1 [Example E-03] | < 3
48 | CC(=O)N1C[C@H](C(=O)Nc2ccc(C)cc2C)[C@@H](c2nnc(CCCC(C)(C)C)n2C2CC2)C1 (racemic) [Example F-219] | < 3
49 | CCn1c(C2Cc3ccccc3C2)nnc1[C@@H]1C[C@@H]1C(=O)Nc1cccc2ccccc12 (racemic) [Example F-27] | > 3
50 | Cc1cc(CO)ccc1NC(=O)CCc1nnc(CCC(C)C)n1C1CC1 [Example F-88] | > 3
